PMC2114115 (The Journal of Cell Biology, 1986)
Blank lines part the entries; values can stand above or below the compound they belong to.

What was measured:
[1] = tested on: GH4C1 cells; test: Release and degradation of cell-bound [125I-Tyr1]SRIF; type: cell-based, rat; details: for effect on receptor-mediated degradation of [125I-Tyr1]SRIF: Table V conditions, compound in dissociation medium, 60 min at 37C; for rate of dissociation or degradation of prebound [125I-Tyr1]SRIF / half-time of release of radioactivity after [125I-Tyr1]SRIF binding: 37C; for rate of dissociation or degradation of prebound [125I-Tyr1]SRIF: chloroquine 0.1 mM, leupeptin 0.1 mg/ml; for half-time of release of radioactivity after [125I-Tyr1]SRIF binding: Fig. 6, absence or presence of 0.1 mM chloroquine, or 0.1 mg/ml leupeptin, 35 pM, 60 min binding
[2] = tested on: GH4C1 cells; details: Koch and Schonbrunn, unpublished observations; cited from earlier work
[3] = tested on: GH4C1 cell membranes; test: Binding, dissociation and degradation of [125I-Tyr1]SRIF with cell membranes; design: species or system rat; details: Table IV; dissociation incubation 4 h at 37C; without or with 100 nM SRIF
[4] = tested on: GH4C1 cells; details: 37C; cited from earlier work
[5] = tested on: SRIF receptors of GH4C1 cells; test: Specific binding of [125I-Tyr1]SRIF to GH4C1 cells; design: species or system rat; details: for cellular accumulation of total or acid-resistant [125I-Tyr1]SRIF: ammonium chloride 20 mM, leupeptin 0.1 mg/ml; for [125I-Tyr1]SRIF bound, Total: Table III, control, leupeptin 0.1 mg/ml or chloroquine 0.1 mM
[6] = target: EGF receptors of GH4C1 cells (Rattus norvegicus, UniProt G3V6K6); test: Specific binding of 125I-EGF to GH4C1 cells; details: for amount of cell-associated 125I-EGF: Fig. 5, prolonged 37C binding incubations, chloroquine 0.1 mM, leupeptin 0.1 mg/ml
[7] = tested on: GH4C1 cells; test: Acid/salt extraction: cellular distribution of receptor-bound 125I-EGF; type: cell-based, rat; details: pulse-chase at 37 degrees C after binding 5 h at 4C, 80 pM (Fig. 2)
[8] = tested on: GH4C1 cells; test: Release and degradation of cell-bound 125I-EGF; type: cell-based, rat; details: 37C; for half-time for the release of 125I-tyrosine derived from receptor-bound 125I-EGF: Fig. 6, control cells or 0.1 mM chloroquine, 59 pM, 90 min binding; for subsequent rate of release of 125I-tyrosine from 125I-EGF: chloroquine 0.1 mM, leupeptin 0.1 mg/ml
[9] = Table V Exp. 2, control or a2-macroglobulin 50 ug/ml

Compound: bacitracin
effect on receptor-mediated degradation of [125I-Tyr1]SRIF [1]: same small effect

Compound: NC(=O)CI [iodoacetamide]
effect on receptor-mediated degradation of [125I-Tyr1]SRIF [1]: substantially inhibited

Compound: Cc1ccc(S(=O)(=O)N[C@@H](Cc2ccccc2)C(=O)CCl)cc1 [TPCK, L-l-tosylamide 2-phenylethyl chloromethyl ketone]
effect on receptor-mediated degradation of [125I-Tyr1]SRIF [1]: substantially inhibited

Compound: somatostatin [SRIF]
time to maximal inhibitory effect on hormone secretion [2]: ≤ 5 min
125I bound [3]: 9,695 cpm
125I dissociated [3]: 10,791 cpm
% Intact [125I-Tyr1]SRIF ([1]; Table V Exp. 1, SRIF 0.1 mM in dissociation medium): 65%
effect on receptor-mediated degradation of [125I-Tyr1]SRIF [1]: only a slight effect

Compound: epidermal growth factor (NSYPGCPSSYDGYCLNGGVCMHIESLDSYTCNCVIGYSGDRCQTRDLRWWELR; not fully specified; Epidermal growth factor; UniProt P01132 977-1029, looked up) [EGF]
time for transformation from acid-extractable to acid-resistant state [4]: ≤ 10 min

Compound: O=C(O)c1cc[c]([Hg][Cl])cc1 [chloromercuribenzoate]
effect on receptor-mediated degradation of [125I-Tyr1]SRIF [1]: substantially inhibited

Compound: a2-macroglobulin
125I released [1, 9]: 2,217 cpm
% Intact [125I-Tyr1]SRIF [1, 9]: 64%
effect on receptor-mediated degradation of [125I-Tyr1]SRIF [1]: same small effect

amount of 125I-EGF bound to cells ([6]; 20 mM ammonium chloride, 4 h at 37C): 210 % of untreated controls
Compound: Cl.N [ammonium chloride]
[125I-Tyr1]SRIF binding ([5]; 20 mM ammonium chloride, 4 h at 37C, same experiment): unaffected
cellular accumulation of total or acid-resistant [125I-Tyr1]SRIF ([5]; 37C, chloroquine 0.1 mM): none of these inhibitors increased

Compound: CC(C)C[C@H](NP(=O)(O)O[C@@H]1O[C@@H](C)[C@H](O)[C@@H](O)[C@H]1O)C(=O)N[C@@H](Cc1c[nH]c2ccccc12)C(=O)O [Phosphoramidon, phosphoramidon]
effect on receptor-mediated degradation of [125I-Tyr1]SRIF [1]: substantially inhibited

Compound: COc1ccc(C[C@H](N)C(=O)N[C@H]2[C@@H](O)[C@H](n3cnc4c(N(C)C)ncnc43)O[C@@H]2CO)cc1 [puromycin]
effect on receptor-mediated degradation of [125I-Tyr1]SRIF [1]: same small effect

Compound: Cc1ccc(S(=O)(=O)NC(CCCCN)C(=O)CCl)cc1 [TLCK, Na-p-tosyl-L-lysine chloromethyl ketone]
effect on receptor-mediated degradation of [125I-Tyr1]SRIF [1]: same small effect

Compound: 125I-EGF: radioiodinated epidermal growth factor, chloramine T iodination
half-time of transfer from acid-sensitive to acid-resistant compartment [7]: 2 min
half-time for the release of 125I-tyrosine derived from receptor-bound 125I-EGF [8]: 45 min

Compound: CC(=O)N[C@@H](CC(C)C)C(=O)N[C@@H](CC(C)C)C(=O)N[C@H](C=O)CCCNC(=N)N [leupeptin]
cellular accumulation of total or acid-resistant [125I-Tyr1]SRIF ([5]; 37C, chloroquine 0.1 mM): none of these inhibitors increased
[125I-Tyr1]SRIF bound, Total ([5]; chase 30 min at 37C): 5,537 cpm
[125I-Tyr1]SRIF bound, Total ([5]; chase 60 min at 37C): 3,385 cpm
amount of cell-associated 125I-EGF [6]: increased
rate of dissociation or degradation of prebound [125I-Tyr1]SRIF [1]: did not alter
half-time of release of radioactivity after [125I-Tyr1]SRIF binding [1]: 48 min
subsequent rate of release of 125I-tyrosine from 125I-EGF [8]: decreased

Compound: O=S(=O)(F)Cc1ccccc1 [PMSF, phenylmethylsulfonyl fluoride]
effect on receptor-mediated degradation of [125I-Tyr1]SRIF [1]: same small effect

Compound: CCN(CC)CCCC(C)Nc1ccnc2cc(Cl)ccc12 (centres unmarked) [chloroquine]
cellular accumulation of total or acid-resistant [125I-Tyr1]SRIF ([5]; 37C, chloroquine 0.1 mM): none of these inhibitors increased
[125I-Tyr1]SRIF bound, Total ([5]; chase 30 min at 37C): 3,491 cpm
[125I-Tyr1]SRIF bound, Total ([5]; chase 60 min at 37C): 1,725 cpm
decrease in [125I-Tyr1]SRIF binding ([5]; chloroquine 0.1 mM, 37C, all times): 50%
amount of cell-associated 125I-EGF [6]: increased
rate of dissociation or degradation of prebound [125I-Tyr1]SRIF [1]: did not alter
half-time of release of radioactivity after [125I-Tyr1]SRIF binding [1]: 41 min
subsequent rate of release of 125I-tyrosine from 125I-EGF [8]: decreased
half-time for the release of 125I-tyrosine derived from receptor-bound 125I-EGF [8]: 150 min
